Literature values, collected in patent US6906044B2, “Regeneration of articular cartilage damaged by grade I and II osteoarthritis by means of the intraarticular application of a mixture of sodium hyaluronate and chondroitin sulfate in a gel vehicle” (Alcon, Inc., priority 2001, dated 2005).

System: injured knees of the horses
Conditions: observed by veterinarians at racetracks

## sodium hyaluronate
  reaction in injured knees: beneficial reaction
